The subject of assay [1] is β5 Ser-759/762 phosphorylation. Kind of assay: Mass spectrometry of β5 immunoprecipitates: β5 phosphorylation. It counts as cell-based, human. An excerpt:
Journal of Cell Science | Peer review history […]
opinion most interesting findings linked to the serine/threonine phosphorylation sites.
Response: We have now changed the t itle and abstract to better emphasize the interesting and novel findings (page 1 -2).
Reviewer 2 Comments for the author...
There are some points that the authors may want to consider: […]
only very limited binding to kindlin-1/2. Furthermore, the phosphomimetic β5-S759/762E mutant promotes localization in FCLs. In the BirA experiments, the authors detect no biotinylation of clathrin adaptors ARH and NUMB with the b5/b1 or b5/b1 chimeras, in contrast to the b5 wt. Is this also the case for clathrin or AP2-mu, established components of FCL?
Response: We thank the reviewer for his/her useful remark. […]
The peptide pull-downs in figure 2 are a little problematic given the high Bg binding of NUMB and ARH to the b1 scr peptide. […] In addition, quantifications from several biological repeats of the pulldowns might help t o establish the reproducibility and statistical significance of the differences indicated by the authors in the text. […]
Figure 3. […] Specifically, we assessed whether phosphorylation of […]
of β5 at S759 and S762 could be detected (discussed in the middle of page 13).
Figure 4. is there a reason for using talin rather than vinculin staining as a FA marker here? […] Could this be analysed and mentioned in the text? […]

The test system of assay [2] is GEF-H1 (phospho S886) in PA-JEB and PA-JEB/β4 keratinocytes. Kind of assay: Western blot: GEF-H1 phosphorylation. It counts as cell-based, human. To be noted: after calyculin A, n=3. The method, then: Proteins were separated by electrophoresis using a Bolt Novex 4–12% gradient Bis-Tris gels (Invitrogen) or 15% SDS-PAGE gels (made in-house), transferred to Immobilon-P transfer membranes (Millipore Corp) and blocked for at least 30 min in 2% BSA in TBST buffer (10 mM Tris-HCl pH 7.5, 150 mM NaCl and 0.3% Tween-20). Primary antibody (diluted 1:1000 in 2% BSA in TBST buffer) incubation took place overnight at 4°C. After washing twice with TBST and twice with TBS, blots were incubated for 1 h hour at room temperature with horseradish peroxidase-conjugated goat anti-mouse-IgG or goat anti-rabbit-IgG (diluted 1:3000 in 2% BSA in TBST buffer). After subsequent washing steps, the bound antibodies were detected by enhanced chemiluminescence using SuperSignal™ West Dura Extended Duration Substrate (ThermoFisher) or Clarity™ Western ECL Substrate (Bio-Rad) as described by the manufacturer. Signal intensities were quantified using ImageJ.
Fig. S4. (A) Representative western blots of phosphorylated myosin light chain (MLC) and GAPDH in PA-JEB/β4 keratinocytes treated with DMSO versus Nocodazole. […]
μm. Quantifications of β5 or β5 mutants clustering in FAs are shown in (C-E). […] Total cells analyzed per condition: 90 (WT, DMSO), 111 (WT, Noco.) (C), 40 (S>E, DMSO), 80 (S>E, Noco.) (D), 65 (S>A, DMSO), 82 (S>A, Noco.) (E). […]

SMILES strings stand for the structures.

Regarding `COC[C@@H]([C@H](O)[C@H](O)C(=O)NCC[C@H](C)c1nc(/C=C/C[C@@H]2O[C@]3(C[C@@H](O)[C@@H]2C)O[C@H]([C@H](C[C@H](O)[C@H](C)[C@H](O)[C@H](C)/C=C(C)/C(C)=C/C=C/C(C)=C\C#N)OC)[C@H](OP(=O)(O)O)C3(C)C)co1)N(C)C` [calyculin A], the “detection of β5 phosphorylation at S759 and S762” value in assay [1] (25 nM calyculin for 20 min, PA-JEB/β4 keratinocytes, anti-β5 immunoprecipitation, MS/MS) is given as “no phosphorylation”. Besides, the “detection of β5 phosphorylation at Ser-759/762” value in assay [1] (calyculin A-treated cells, mass spectrometry of β5 immunoprecipitates) is reported as “unsuccessful”. In assay [2], the “phosphorylation of GEF-H1” value was “increase in the phosphorylation of GEF-H1”.

The values are drawn from paper PMC9234671, “Molecular determinants of αVβ5 localization in flat clathrin lattices – role of αVβ5 in cell adhesion and proliferation” (Journal of Cell Science, 2022).
